± gives the expanded uncertainty stated by the source.
Columns and labels:
[1] = refractive index (Na D-line) (dimensionless); conditions: 101.33 kPa, Liquid, Standard Abbe refractometry
[2] = 101.33 kPa, Liquid

Row | SMILES | refractive index ([1]; 293.15 K) | mass density ([2]; 293.15 K) | also measured
1 | Nc1ccccc1 [aniline] | 1.5962 ± 0.0007 | 1021.72 ± 1.6 kg/m3 | 
2 | NC1CCCCC1 [cyclohexylamine] |  |  | refractive index ([1]; 288.15 K): 1.4624 ± 0.0007; mass density ([2]; 303.15 K): 858.2 ± 0.91 kg/m3
3 | CCCCCCCC [octane] |  |  | refractive index ([1]; 298.15 K): 1.3946 ± 0.0007; mass density ([2]; 298.15 K): 698.49 ± 0.71 kg/m3
4 | Cc1ccccc1 [toluene] | 1.496 ± 0.0007 | 866.78 ± 0.89 kg/m3 | 

Reference: the NIST ThermoML archive (doi:10.1016/j.fluid.2007.07.023)
